Where two headings read alike, the source gives them in different places.

These results are taken from US20140193802A1, “IDENTIFICATION OF AN ALTERED THERAPEUTIC SUSCEPTIBILITY TO ANTI-HCMV COMPOUNDS AND OF A RESISTANCE AGAINST ANTI-HCMV COMPOUNDS” (priority 2012, published 2014).

What all share (assay type): cell-based, human cytomegalovirus (HCMV)
Experiment [1] has as its system RV-HG UL56-L241P. In words: GFP-RA, marker transfer mutant. How it is done:
(§1) HCMV Fluorescence Reduction Assay (GFP-RA)
(§2) The susceptibilities of recombinant HCMV laboratory strains expressing GFP were determined by a GFP-based fluorescence reduction assay. For standard assays, 1.5×10^4 NHDF cells/well were cultured in black 96-well plates (Greiner Bio-One, Germany) and infected with either HCMV-GFP (MOI, 0.1) or RV-HG (MOI, 0.2 to 0.5). After virus adsorption, the virus inoculum was replaced with 200 μl fresh medium. Thereafter, 100 μl medium containing the test compounds was added to wells of horizontal row G, followed by serial 3-fold dilutions up to row A. All drug concentrations were tested at least in duplicate. Wells of the horizontal row H served as the virus control. Plates were incubated at 37° C. for 7 days. The medium was replaced by 200 μl PBS, and GFP units (GFPU) were determined by a charge-coupled-device-camera-based fluorescence detector (FluoBox; Bayer Technology Services GmbH, Leverkusen, Germany), which captures 96 images simultaneously. Drug effects were calculated as a percentage of reduction in GFPU in the presence of each drug concentration compared to the GFPU determined in the absence of drug. EC50 and EC90 values (drug concentrations producing 50% and 90% reduction in GFPU) were calculated using nonlinear regression curve fit with a variable slope. GraphPad Prism 3.02 or 4.0 software (GraphPad Software Inc., La Jolla, Calif.) was used for all analyses.
(§3) The HCMV AD169-derived bacterial artificial chromosome (BAC) pHG served as the backbone for the construction of the mutant viruses. The markerless introduction of point mutations into pHG was done using a two-step recombination protocol according to the en passant method. Briefly, a recombination fragment containing the I-SceI-AphAI cassette from plasmid pEPKan-S was obtained by PCR using primers containing ˜60 bp of homology to the intended integration site in ORF UL56 of BAC pHG and ˜20 bp specific for pEPKan-S. This fragment was electroporated into Escherichia coli GS1783 that harbored the pHG BAC. […] After successful kanamycin selection, all non-HCMV sequences were removed by an intrabacterial ISceI digest and a subsequent second Red recombination, resulting in the scarless repair of the mutated UL56 gene in the background of BAC pHG. The integrity of the generated BACs was confirmed by restriction enzyme digestion and sequencing. To reconstitute virus mutants, the recombinant BACs were transfected into permissive MRC5 cells. At least two independent virus clones per mutation were generated and evaluated.

The subject of experiment [2] is RV-HG UL56-C325Y. In words: GFP-RA, marker transfer mutant. The protocol:
as §1, §2, §3

In experiment [3] the test system is RV-HG UL56-V231L. In words: GFP-RA, marker transfer mutant. The protocol: as §1, §2, §3
Experiment [4] has as its system RV-HG UL56-R369S. In words: GFP-RA, marker transfer mutant. How it is done: as §1, §2, §3
The subject of experiment [5] is RV-HG UL56-L241P/R369S. Description: GFP-RA, marker transfer mutant. The note with it: for Resistance index (RI) = EC50 indicated RV-HG mutant/EC50 RV-HG wt: RV-HG UL56-L241P/R369S vs RV-HG wt. How it is done:
as §1, §2, §3

Experiment [6] concerns RV-HG UL56-R369M. In words: GFP-RA, marker transfer mutant. The note with it: for Resistance index (RI) = EC50 indicated RV-HG mutant/EC50 RV-HG wt: RV-HG UL56-R369M vs RV-HG wt. How it is done:
as §1, §2, §3

Experiment [7] relates to RV-HG UL56-V236M. In words: GFP-RA, marker transfer mutant. The protocol:
as §1, §2, §3

The test system of experiment [8] is RV-HG (wt-HCMV). In words: HCMV fluorescence reduction assay (GFP-RA). The protocol:
as §1, §2, §3

Experiment [9] deals with RV-HG UL56-C325Yrev. In words: GFP-RA, marker transfer revertant. How it is done:
as §1, §2, §3

The subject of experiment [10] is RV-HG-UL56 mutants. In words: GFP-RA, drug susceptibility profile of the virus mutants. The note with it: fluorescence reduction assays; for BAY 38-4766 and BDCRB with the exception of the strain carrying UL56 R369M. The protocol:
as §1, §2
as §3, with “The integrity of the generated BACs was confirmed by restriction enzyme digestion and sequencing.” left out

The mark [11] stands for this setting: Human betaherpesvirus 5, RV-HG UL56-V231L, fluorescence reduction assay, mean ± SD, read-out: EC50.
The mark [12] stands for this setting: Human betaherpesvirus 5, RV-HG UL56-R369S, fluorescence reduction assay, mean ± SD, read-out: EC50.
The mark [13] stands for this setting: Human betaherpesvirus 5, RV-HG UL56-L241P/R369S, fluorescence reduction assay, mean ± SD, read-out: EC50.
Setting [14] is: Human betaherpesvirus 5, RV-HG UL56-R369M, fluorescence reduction assay, mean ± SD, read-out: EC50.
[15] abbreviates: Human betaherpesvirus 5, RV-HG UL56-L241P, fluorescence reduction assay, mean ± SD, read-out: EC50.
Where [16] appears, read: Human betaherpesvirus 5, RV-HG UL56-C325Y, fluorescence reduction assay, mean ± SD, read-out: EC50.
The mark [17] stands for this setting: Human betaherpesvirus 5, RV-HG UL56-V236M, fluorescence reduction assay, mean ± SD, read-out: EC50.
Where [18] appears, read: Human betaherpesvirus 5, RV-HG (wt-HCMV), fluorescence reduction assay, mean ± SD, read-out: EC50.
The mark [19] stands for this setting: Human betaherpesvirus 5, RV-HG UL56-C325Yrev, fluorescence reduction assay, mean ± SD, read-out: EC50.

Consider `Nc1nc2c(ncn2COCCO)c(=O)[nH]1` [Aciclovir], for which the EC50 was 53000 ± 12000 nM in experiment [1] (Human betaherpesvirus 5); 49000 ± 16000 nM in experiment [2] (Human betaherpesvirus 5); 29000 ± 9000 nM in [3] (setting [11]); 45000 ± 10000 nM in [4] (setting [12]); 81000 ± 33000 nM in experiment [5] (setting [13]); 88000 ± 29000 nM in [6] (setting [14]). Also, the EC50 in experiment [7] (Human betaherpesvirus 5) amounted to 80000 ± 21000 nM; in [8] (Human betaherpesvirus 5), 74000 ± 40000 nM; in [9] (Human betaherpesvirus 5), 55000 ± 18000 nM.
With `CN(C)c1cccc2c(S(=O)(=O)Nc3ccc(NC(=O)C(C)(C)CO)cc3)cccc12` [BAY384766], the EC50 came to 340 ± 140 nM in experiment [1] (setting [15]); 1070 ± 140 nM in experiment [2] (setting [16]); 360 ± 80 nM in experiment [3] (setting [11]); 680 ± 130 nM in [4] (Human betaherpesvirus 5); 840 ± 310 nM in experiment [5] (Human betaherpesvirus 5); 1750 ± 160 nM in [6] (Human betaherpesvirus 5). The EC50 in [7] (setting [17]) came to 330 ± 80 nM; in [8] (setting [18]), 410 ± 150 nM; in [9] (setting [19]) it was 580 ± 60 nM. In addition, the “Resistance index (RI) = EC50 indicated RV-HG mutant/EC50 RV-HG wt” value is given as 2 in experiment [5] and 4 in experiment [6]. Further, in experiment [10], the “sensitivity of the RV-HG-UL56 mutants compared with the parental wild-type virus RV-HG” value is “comparably active”.
As to `OC[C@H]1O[C@@H](n2c(Br)nc3cc(Cl)c(Cl)cc32)[C@H](O)[C@@H]1O` [BDCRB], the EC50 in experiment [1] (RV-HG UL56-L241P, fluorescence reduction assay, mean ± SD, read-out: EC50) was 270 ± 40 nM; in experiment [2] (RV-HG UL56-C325Y, fluorescence reduction assay, mean ± SD, read-out: EC50), 300 ± 40 nM; in experiment [3] (RV-HG UL56-V231L, fluorescence reduction assay, mean ± SD, read-out: EC50), 210 ± 40 nM; in [4] (RV-HG UL56-R369S, fluorescence reduction assay, mean ± SD, read-out: EC50) it was 190 ± 20 nM; in [5] (RV-HG UL56-L241P/R369S, fluorescence reduction assay, mean ± SD, read-out: EC50) it was 300 ± 140 nM; in experiment [6] (RV-HG UL56-R369M, fluorescence reduction assay, mean ± SD, read-out: EC50), 110 ± 50 nM. Moreover, the EC50 in experiment [7] (RV-HG UL56-V236M, fluorescence reduction assay, mean ± SD, read-out: EC50) turned out to be 170 ± 30 nM; in experiment [8] (RV-HG (wt-HCMV), fluorescence reduction assay, mean ± SD, read-out: EC50) it was 330 ± 120 nM; in experiment [9] (RV-HG UL56-C325Yrev, fluorescence reduction assay, mean ± SD, read-out: EC50) it was 290 ± 40 nM. Moreover, the “sensitivity of the RV-HG-UL56 mutants compared with the parental wild-type virus RV-HG” value in [10] is reported as “comparably active”.
`Nc1ccn(C[C@@H](CO)OCP(=O)(O)O)c(=O)n1` [Cidofovir]: the EC50 turned out to be 210 ± 90 nM in experiment [1] (setting [15]); 350 ± 50 nM in experiment [2] (setting [16]); 90 ± 20 nM in experiment [3] (setting [11]); 160 ± 50 nM in experiment [4] (setting [12]); 200 ± 110 nM in experiment [5] (setting [13]); 180 ± 110 nM in experiment [6] (setting [14]). Besides, the EC50 in [7] (setting [17]) stood at 260 ± 180 nM; in experiment [8] (setting [18]), 250 ± 170 nM; in experiment [9] (setting [19]), 320 ± 130 nM. Besides, the “sensitivity of the RV-HG-UL56 mutants compared with the parental wild-type virus RV-HG” value in experiment [10] is given as “did not differ”.
For `N#CC1(C(=O)Nc2cc(F)cc(NS(=O)(=O)c3ccc(-c4noc(-c5cccc(N)n5)n4)cc3)c2)CC1` [Formula (X), N-{3-[({4-[5-(6-Aminopyridin-2-yl)-1,2,4-oxadiazol-3-yl]phenyl}sulfonyl)amino]-5-fluorophenyl}-1-cyanocyclopropanecarboxamide], the EC50 in [1] (setting [15]) came to 18.3 ± 10 nM; in experiment [2] (setting [16]), 36.7 ± 3.9 nM; in experiment [3] (setting [11]), 7.1 ± 1.2 nM; in [4] (setting [12]), 29.5 ± 13.7 nM; in experiment [5] (setting [13]), 41.6 ± 18 nM; in [6] (setting [14]), 96 ± 18 nM. Besides, the EC50 in experiment [7] (setting [17]) was 8.6 ± 1.3 nM; in experiment [8] (setting [18]) it was 14.1 ± 7.9 nM; in experiment [9] (setting [19]), 31.7 ± 2.4 nM. The “Resistance index (RI) = EC50 indicated RV-HG mutant/EC50 RV-HG wt” value in [4] (RV-HG UL56-R369S vs RV-HG wt) came out at 2; in [5] it was 3; in experiment [6], 7.
`O=C(O)P(=O)(O)O` [Foscarnet]: the EC50 stood at 115000 ± 71000 nM in experiment [1] (setting [15]); 126000 ± 20000 nM in experiment [2] (setting [16]); 67000 ± 18000 nM in [3] (Human betaherpesvirus 5); 61000 ± 21000 nM in experiment [4] (setting [12]); 62000 ± 30000 nM in experiment [5] (setting [13]); 76000 ± 25000 nM in [6] (setting [14]). The concentration giving a half-maximal response (EC50) came to 76000 ± 35000 nM in experiment [7] (setting [17]), 111000 ± 55000 nM in [8] (setting [18]) and 178000 ± 12000 nM in [9] (setting [19]). The “sensitivity of the RV-HG-UL56 mutants compared with the parental wild-type virus RV-HG” value in [10] was “did not differ”.
Consider `CC(C)Nc1nc2cc(Cl)c(Cl)cc2n1[C@H]1O[C@@H](CO)[C@H](O)[C@@H]1O` [Maribavir], for which the EC50 in [1] (setting [15]) came out at 140 ± 70 nM; in experiment [2] (setting [16]), 290 ± 140 nM; in experiment [4] (setting [12]), 80 ± 30 nM; in [8] (setting [18]) it was 180 ± 110 nM; in [9] (setting [19]), 180 ± 70 nM.

A word on the EC50: it is the concentration that produces a half-maximal response.
